Data reported in BindingDB's records for doi:10.1021/jm00054a014 (Monsanto Corporate Research, 1993).

target: T1, Dimer of Gag-Pol polyprotein [489-587] (Human immunodeficiency virus 1, UniProt P12497); assay: Protease Inhibition Assay; details: pH 6.4; 25 °C
T1 construct: 489-587
Method: IC50 values for inhibition of recombinant HIV protease were determined using the spectrofluorometric assay, which utilized an intramolecularly quenched fluorogenic substrate, 2-(aminobenzoyl)-Thr-Ile-Nle-Phe(p-NO2)-Gln-ArgNH2. Cleavage of the substrate by HIV protease released the fluorescent N-terminal tripeptide from its close apposition to the quenching nitrobenzyl group, resulting in enhanced fluorescence.

Question: `CCCCNC(=O)N(C)C[C@@H](O)[C@H](Cc1ccccc1)NC(=O)[C@H](CC(N)=O)NC(=O)OCc1ccccc1` [benzyl N-[(1S)-1-{[(2S,3R)-4-[(butylcarbamoyl)(methyl)amino]-3-hydroxy-1-phenylbutan-2-yl]carbamoyl}-2-carbamoylethyl]carbamate] was tested. Which IC50 did it give?
Answer: Its IC50 is over 10 µM.

Question: With `CCCCNC(=O)N(CC(C)C)C[C@H](O)[C@H](Cc1ccccc1)NC(=O)[C@H](CC(N)=O)NC(=O)OCc1ccccc1` [benzyl N-[(1S)-1-{[(2S,3S)-4-[(butylcarbamoyl)(2-methylpropyl)amino]-3-hydroxy-1-phenylbutan-2-yl]carbamoyl}-2-carbamoylethyl]carbamate] as the compound, how does the IC50 read?
Answer: Its IC50 is over 10 µM.

Question: For `CCCCNC(=O)N(C)C[C@H](O)[C@H](Cc1ccccc1)NC(=O)[C@H](CC(N)=O)NC(=O)OCc1ccccc1` [benzyl N-[(1S)-1-{[(2S,3S)-4-[(butylcarbamoyl)(methyl)amino]-3-hydroxy-1-phenylbutan-2-yl]carbamoyl}-2-carbamoylethyl]carbamate], which IC50 is on record?
Answer: Its IC50 is over 10 µM.

Question: With `CNC(=O)N(C)C[C@@H](O)[C@H](Cc1ccccc1)NC(=O)[C@H](CC(N)=O)NC(=O)OCc1ccccc1` [benzyl N-[(1S)-2-carbamoyl-1-{[(2S,3R)-3-hydroxy-4-[methyl(methylcarbamoyl)amino]-1-phenylbutan-2-yl]carbamoyl}ethyl]carbamate] as the compound, how does the IC50 read?
Answer: The IC50 was over 10 µM.

Question: How did the IC50 turn out when `CNC(=O)N(CC(C)C)C[C@H](O)[C@H](Cc1ccccc1)NC(=O)[C@H](CC(N)=O)NC(=O)OCc1ccccc1` [benzyl N-[(1S)-2-carbamoyl-1-{[(2S,3S)-3-hydroxy-4-[(methylcarbamoyl)(2-methylpropyl)amino]-1-phenylbutan-2-yl]carbamoyl}ethyl]carbamate] was run?
Answer: The IC50 was over 10 µM.

Question: `CNC(=O)N(C)C[C@H](O)[C@H](Cc1ccccc1)NC(=O)[C@H](CC(N)=O)NC(=O)OCc1ccccc1` [benzyl N-[(1S)-2-carbamoyl-1-{[(2S,3S)-3-hydroxy-4-[methyl(methylcarbamoyl)amino]-1-phenylbutan-2-yl]carbamoyl}ethyl]carbamate] was tested. Which IC50 did it give?
Answer: Its IC50 is over 10 µM.
